Assay results reported in patent US11420977B2, “Late SV40 (LSF) inhibitors” (Trustees of Boston University, priority 2018, dated 2022).

Columns and labels:
Format in all cases: cell-based
[1] = tested on: NIH 3T3 cells; experiment: MTS cell proliferation assay, NIH 3T3; details: Mus musculus, NIH3T3, 72-hour incubation
Protocol: (§1) Cell lines and culture conditions: Human colon cancer cells Caco-2, HT29 and HCT15, human pancreatic cancer cells BxPC3, CFPAC-1, and CAPAN-2, liver cancer cells SNU423 and kidney cells HEK293, were obtained from American Type Culture Collection (Rockville, USA). HeLa, DLD1, U937, THP-1, and NIH3T3 cells were obtained from ATCC. Huh7 cells were obtained from (Japanese Cancer Resources Bank). HeLa cells, Huh7, DLD1 and NIH-3T3 cells were cultured in DMEM (Dulbecco's modification of Eagle's Medium; Corning) supplemented with 10% Fetal Bovine Serum (FBS; Invitrogen) and 10% Fetal Calf Serum (FCS; Atlanta Biologicals) respectively. U937, BxPC3, HCT15, SNU423 and THP-1 cells were grown in RPMI-1640 (Roswell Park Memorial Institute; Corning) supplemented with 10% Fetal Bovine Serum (FBS; Invitrogen). CFPAC-1 cells were cultured in Iscove's Modified Dulbecco's Medium (ATCC) supplemented with 10% FBS. CAPAN-2 and HT29 cells were cultured in McCoy's 5a medium supplemented with 10% FBS. Caco2 and HEK293 cells were grown in Eagle's Minimum Essential Medium (ATCC) with final 20% FBS concentration. […]
(§2) MTS cell proliferation assay: Cells were detached from the plates using trypsin (0.25% for 3 mins, ATCC) and counted using a hemocytometer and were plated at 3000-1500 cells per well, in a 96-well format. […] After a 72-hour (or 120 hrs for BxPC3, CAPAN-2, SNU423) incubation with compound or vehicle, cell growth was assessed via the Promega CellTiter 96® AQueous One Solution Cell Proliferation Assay, a colorimetric method to determine the number of viable cells. 20 μL of the CellTiter 96® AQueous One Solution Reagent was added directly into cultured wells and incubated for approximately one hour, after which the absorbance at 490 nm was read with a 96-well plate reader (Opys MR Microplate Reader). GI50 values were determined from plots of the percentage of compound-treated cell growth to vehicle cell growth vs. compound concentration (GraphPad Prism; non-linear regression, log inhibitor verse normalized response with variable slope).

[2] = tested on: CaCo-2 cells; experiment: MTS cell proliferation assay, CaCo-2; details: Homo sapiens, 72-hour incubation
Protocol: (§3) Cell lines and culture conditions: Human colon cancer cells Caco-2, HT29 and HCT15, human pancreatic cancer cells BxPC3, CFPAC-1, and CAPAN-2, liver cancer cells SNU423 and kidney cells HEK293, were obtained from American Type Culture Collection (Rockville, USA). HeLa, DLD1, U937, THP-1, and NIH3T3 cells were obtained from ATCC. Huh7 cells were obtained from (Japanese Cancer Resources Bank). HeLa cells, Huh7, DLD1 and NIH-3T3 cells were cultured in DMEM (Dulbecco's modification of Eagle's Medium; Corning) supplemented with 10% Fetal Bovine Serum (FBS; Invitrogen) and 10% Fetal Calf Serum (FCS; Atlanta Biologicals) respectively. […]
as §2, with “GI50 values were determined from plots of the percentage of compound-treated cell growth to vehicle cell growth vs. compound concentration (GraphPad Prism; non-linear regression, log inhibitor verse normalized response with variable slope).” left out

[3] = tested on: HT-29 cells; experiment: MTS cell proliferation assay, HT-29; details: Homo sapiens, 72-hour incubation
Protocol: as §3
as §2, with “GI50 values were determined from plots of the percentage of compound-treated cell growth to vehicle cell growth vs. compound concentration (GraphPad Prism; non-linear regression, log inhibitor verse normalized response with variable slope).” left out

[4] = tested on: BxPC-3 cells; experiment: MTS cell proliferation assay, BxPC-3; details: Homo sapiens, 120 hrs incubation
Protocol: as §3
as §2, with “GI50 values were determined from plots of the percentage of compound-treated cell growth to vehicle cell growth vs. compound concentration (GraphPad Prism; non-linear regression, log inhibitor verse normalized response with variable slope).” left out

[5] = tested on: U937 cells; experiment: MTS cell proliferation assay, U937; details: Homo sapiens, U-937, 72-hour incubation
Protocol: as §3
as §2, with “GI50 values were determined from plots of the percentage of compound-treated cell growth to vehicle cell growth vs. compound concentration (GraphPad Prism; non-linear regression, log inhibitor verse normalized response with variable slope).” left out

[6] = tested on: CFPAC-1 cells; experiment: MTS cell proliferation assay, CFPAC-1; details: Homo sapiens, 72-hour incubation
Protocol: as §3
as §2, with “GI50 values were determined from plots of the percentage of compound-treated cell growth to vehicle cell growth vs. compound concentration (GraphPad Prism; non-linear regression, log inhibitor verse normalized response with variable slope).” left out

[7] = tested on: CAPAN-2 cells; experiment: MTS cell proliferation assay, CAPAN-2; details: Homo sapiens, 120 hrs incubation
Protocol: as §3
as §2, with “GI50 values were determined from plots of the percentage of compound-treated cell growth to vehicle cell growth vs. compound concentration (GraphPad Prism; non-linear regression, log inhibitor verse normalized response with variable slope).” left out

[8] = tested on: HeLa cells; experiment: MTS cell proliferation assay, HeLa; details: Homo sapiens, 72-hour incubation
Protocol: as §1, §2

[9] = tested on: HEK-293 cells; experiment: MTS cell proliferation assay, HEK-293; details: Homo sapiens, HEK293, 72-hour incubation
Protocol: as §3
as §2, with “GI50 values were determined from plots of the percentage of compound-treated cell growth to vehicle cell growth vs. compound concentration (GraphPad Prism; non-linear regression, log inhibitor verse normalized response with variable slope).” left out

[10] = tested on: HuH7 cells; experiment: MTS cell proliferation assay, HuH7; details: Homo sapiens, Huh-7, 72-hour incubation
Protocol: (§4) Cell lines and culture conditions: Human colon cancer cells Caco-2, HT29 and HCT15, human pancreatic cancer cells BxPC3, CFPAC-1, and CAPAN-2, liver cancer cells SNU423 and kidney cells HEK293, were obtained from American Type Culture Collection (Rockville, USA). HeLa, DLD1, U937, THP-1, and NIH3T3 cells were obtained from ATCC. Huh7 cells were obtained from (Japanese Cancer Resources Bank). HeLa cells, Huh7, DLD1 and NIH-3T3 cells were cultured in DMEM (Dulbecco's modification of Eagle's Medium; Corning) supplemented with 10% Fetal Bovine Serum (FBS; Invitrogen) and 10% Fetal Calf Serum (FCS; Atlanta Biologicals) respectively. U937, BxPC3, HCT15, SNU423 and THP-1 cells were grown in RPMI-1640 (Roswell Park Memorial Institute; Corning) supplemented with 10% Fetal Bovine Serum (FBS; Invitrogen). CFPAC-1 cells were cultured in Iscove's Modified Dulbecco's Medium (ATCC) supplemented with 10% FBS. CAPAN-2 and HT29 cells were cultured in McCoy's 5a medium supplemented with 10% FBS. Caco2 and HEK293 cells were grown in Eagle's Minimum Essential Medium (ATCC) with final 20% FBS concentration. All cells were maintained at 37° C. in 5% CO2 at constant 70% humidity.
(§5) MTS cell proliferation assay: Cells were detached from the plates using trypsin (0.25% for 3 mins, ATCC) and counted using a hemocytometer and were plated at 3000-1500 cells per well, in a 96-well format. The cells were seeded in the inner wells of 96 well plates, and media was added to the outer wells (blank). For NIH-3T3, 1500 cells were seeded in the inner wells of 96-well plates, and after 20 hours cells were treated with compound or DMSO (vehicle control) at appropriate concentrations (DMSO at final concentration of 1%). For other adherent cells 3000 HeLa, BxPC3, CFPAC-1, CAPAN-2, HEK293, HCT15, HT29, CaCo2, DLD1, Huh7 or SNU423 cells were seeded in in each well approximately 20 hrs prior to the treatment. For U937 and THP-1 suspension cells, 2500 cells were added to the wells of a 96-well plate on the day of treatment. After a 72-hour (or 120 hrs for BxPC3, CAPAN-2, SNU423) incubation with compound or vehicle, cell growth was assessed via the Promega CellTiter 96® AQueous One Solution Cell Proliferation Assay, a colorimetric method to determine the number of viable cells. 20 μL of the CellTiter 96® AQueous One Solution Reagent was added directly into cultured wells and incubated for approximately one hour, after which the absorbance at 490 nm was read with a 96-well plate reader (Opys MR Microplate Reader). GI50 values were determined from plots of the percentage of compound-treated cell growth to vehicle cell growth vs. compound concentration (GraphPad Prism; non-linear regression, log inhibitor verse normalized response with variable slope).

[11] = tested on: HCT-15 cells; experiment: MTS cell proliferation assay, HCT-15; details: Homo sapiens, 72-hour incubation
Protocol: as §3
as §2, with “GI50 values were determined from plots of the percentage of compound-treated cell growth to vehicle cell growth vs. compound concentration (GraphPad Prism; non-linear regression, log inhibitor verse normalized response with variable slope).” left out

[12] = tested on: RPE-hTERT Flp-In cells; experiment: FQI34/FQI1 comparison, mitotic defects in RPE-hTERT Flp-In cells
Protocol: RPE-hTERT Flp-In cells were incubated in serum-free DMEM:F12 media for 24 hours to synchronize the cells in G0/G1. Cells were stimulated to reenter the cell cycle with DMEM:F12 media containing 10% Fetal Bovine Serum. After 24 hours, the cells were treated with DMSO (vehicle), FQI1 (2.5 μM or 5 μM), or FQI34 (250 nM or 500 nM) for one hour. The cells were washed twice with 1×Phosphate-buffered Saline and fixed with PHEM (3.7% formaldehyde in 100 mM PIPES at pH 6.8, 10 mM EGTA, 1 mM magnesium chloride, and 0.2% Triton X-100) for 10 minutes at room temperature. The fixed cells were stained for α-tubulin using a mouse anti-α-tubulin antibody (Fisher #62204). Secondary antibodies were: DMSO/FQI1 samples—goat anti-mouse IgG conjugated to Alexa 546 (Thermo Fisher #A11003); FQI34 samples—goat anti-mouse IgG conjugated to Texas Red (Fisher #T-862). DNA was stained with Hoechst 33342. Cells were imaged using a Nikon NiE using the 40× objective and images were captured using a DS-Qi1 Mc 12 bit camera. Scale bars and merged images were generated using Fiji software.

[13] = tested on: SNU-423 cells; experiment: MTS cell proliferation assay, SNU-423; details: Homo sapiens, 120 hrs incubation
Protocol: as §4, §5

[14] = tested on: THP-1 cells; experiment: MTS cell proliferation assay, THP-1; details: Homo sapiens, 72-hour incubation
Protocol: as §3
as §2, with “GI50 values were determined from plots of the percentage of compound-treated cell growth to vehicle cell growth vs. compound concentration (GraphPad Prism; non-linear regression, log inhibitor verse normalized response with variable slope).” left out

- GI50 [2]: 501 nM
- GI50 [3]: 316 nM
- GI50 [4]: 270 nM
- GI50 [5]: 250 nM
- GI50 [8]: 462 nM
- GI50 [10]: 141 nM
- GI50 [11]: 224 nM
- GI50 [13]: 384 nM
- GI50 [14]: 4800 nM
Structure (SMILES): CCOc1cc(N(C)C)ccc1C1CC(=O)Nc2cc3c(cc21)OCO3 (stereo not drawn) [FQI-34]
- GI50 [1]: 730 nM
- GI50 [6]: 676 nM
- GI50 [7]: 239 nM
- GI50 [9]: 219 nM
- potency for causing mitotic defects relative to FQI1 ([12]; FQI34 250 nM or 500 nM vs FQI1 2.5 μM or 5 μM, one hour): at least 10 fold
- chromosome and spindle phenotype (DNA and α-tubulin immunofluorescence) ([12]; one hour treatment, FIG. 33): condensed, but nonaligned chromosomes and disrupted spindles
